Assay results: patent publication US6376497B1, “Antifungal azole derivatives having a fluorinated vinyl group and process for preparing same” (Korea Research Institute of Chemical Technology, priority 1999, dated 2002)

Assays:
Assay in all cases: In vitro antifungal activity, microbroth dilution MIC
Type in all cases: cell-based
[1] = system: Trichophyton mentagrophytes B. 32663; conditions: for Minimal inhibitory concentration(MIC), T. mentagrophytes B. 32663: RPMI-1640, 35° C., no growth observed
Method in brief: (§1)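 Broth microdilution adapted from NCCLS M27, in RPMI-1640 with 0.165 M MOPS, pH 7.0. Yeast or mould inoculum at 2×10^3 CFU/ml was mixed 1:1 with DMSO-derived compound solutions (200 to 0.10 μg/ml before mixing) and incubated at 35 °C for 4 to 48 h. MIC was the concentration showing no growth.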

[2] = system: Aspergillus niger A. 16404; conditions: for Minimal inhibitory concentration(MIC), A. niger A. 16404: RPMI-1640, 35° C., no growth observed
Method in brief: as §1

[3] = system: Trichophyton mentagrophytes A. 9129; conditions: for Minimal inhibitory concentration(MIC), T. mentagrophytes A. 9129: RPMI-1640, 35° C., no growth observed
Method in brief: as §1

[4] = system: Candida pseudotropicalis K. 11658; conditions: 4 to 48 hours; for Minimal inhibitory concentration(MIC), C. pseudotropicalis K. 11658: RPMI-1640, 35° C., no growth observed
Method in brief: as §1

[5] = system: Candida parapsitosis A. 7330; conditions: 4 to 48 hours; for Minimal inhibitory concentration(MIC), C. parapsitosis A. 7330: RPMI-1640, 35° C., no growth observed
Method in brief: as §1

[6] = system: Cryptococcus neoformans B. 42419; conditions: 4 to 48 hours; for Minimal inhibitory concentration(MIC), Cry. neoformans B. 42419: RPMI-1640, 35° C., no growth observed
Method in brief: as §1

[7] = system: Candida albicans A. 10231; conditions: 4 to 48 hours; for Minimal inhibitory concentration(MIC), C. albicans A. 10231: RPMI-1640, 35° C., no growth observed; for Minimal inhibitory concentration (MIC): C. albicans A. 10231, RPMI-1640, 35° C.
Method in brief: as §1

[8] = system: Torulopsis glabrata B. 16205; conditions: 4 to 48 hours; for Minimal inhibitory concentration(MIC), T. glabrata B. 16205: RPMI-1640, 35° C., no growth observed
Method in brief: as §1

[9] = system: Aspergillus furnigatus B. 19119; conditions: for Minimal inhibitory concentration(MIC), A furnigatus B. 19119: RPMI-1640, 35° C., no growth observed
Method in brief: as §1

[10] = system: Cryptococcus neoformans A. 34144; conditions: for Minimal inhibitory concentration(MIC), Cry. neoformans A. 34144: RPMI-1640, 35° C., no growth observed
Method in brief: as §1

[11] = system: Candida krusei K. 11655; conditions: 4 to 48 hours; for Minimal inhibitory concentration(MIC), C. krusei K. 11655: RPMI-1640, 35° C., no growth observed
Method in brief: as §1

[12] = system: Candida albicans IFO. 1385; conditions: 4 to 48 hours; for Minimal inhibitory concentration(MIC), C. albicans IFO. 1385: RPMI-1640, 35° C., no growth observed
Method in brief: as §1

[13] = system: Candida tropicalis A. 13803; conditions: 4 to 48 hours; for Minimal inhibitory concentration(MIC), C. tropicalis A. 13803: RPMI-1640, 35° C., no growth observed
Method in brief: as §1

[14] = system: Cryptococcus neoformans IFM. 40092; conditions: for Minimal inhibitory concentration(MIC), Cry. neoformans IFM. 40092: RPMI-1640, 35° C., no growth observed
Method in brief: as §1

[15] = system: Candida albicans C1-2; conditions: 4 to 48 hours; for Minimal inhibitory concentration(MIC), C. albicans C1-2: RPMI-1640, 35° C., no growth observed; for Minimal inhibitory concentration (MIC): C. albicans C1-2, RPMI-1640, 35° C.
Method in brief: as §1

Minimal inhibitory concentration(MIC), C. pseudotropicalis K. 11658 [4] | Minimal inhibitory concentration(MIC), C. parapsitosis A. 7330 [5] | Minimal inhibitory concentration(MIC), Cry. neoformans B. 42419 [6] | Minimal inhibitory concentration(MIC), C. albicans A. 10231 [7] | Minimal inhibitory concentration(MIC), T. glabrata B. 16205 [8] | Minimal inhibitory concentration(MIC), C. krusei K. 11655 [11] | Minimal inhibitory concentration(MIC), C. albicans IFO. 1385 [12] | Minimal inhibitory concentration(MIC), C. tropicalis A. 13803 [13] | Minimal inhibitory concentration(MIC), C. albicans C1-2 [15] | Minimal inhibitory concentration(MIC), T. mentagrophytes B. 32663 ([1]; 4 to 48 hours) | Minimal inhibitory concentration(MIC), A. niger A. 16404 ([2]; 4 to 48 hours) | Minimal inhibitory concentration(MIC), T. mentagrophytes A. 9129 ([3]; 4 to 48 hours) | Minimal inhibitory concentration (MIC) [7] | Minimal inhibitory concentration(MIC), A furnigatus B. 19119 ([9]; 4 to 48 hours) | Minimal inhibitory concentration(MIC), Cry. neoformans A. 34144 ([10]; 4 to 48 hours) | Minimal inhibitory concentration(MIC), Cry. neoformans IFM. 40092 ([14]; 4 to 48 hours) | Minimal inhibitory concentration (MIC) [15] | SMILES | other results
3.13 µg/mL | 3.13 µg/mL | 0.78 µg/mL | >100 µg/mL | 100 µg/mL | 1.56 µg/mL | 0.78 µg/mL | >100 µg/mL | >100 µg/mL |  |  |  |  |  |  |  |  | FC(=C(c1ccc2c(c1)OCO2)C(F)(F)F)N1CCN(c2ccc(OCC3COC(Cn4ccnc4)(c4ccc(F)cc4F)O3)cc2)CC1 (mixture of isomers) [Ex. 145] | Minimal inhibitory concentration(MIC), T. mentagrophytes B. 32663 [1]: 1.56 µg/mL; Minimal inhibitory concentration(MIC), A. niger A. 16404 [2]: 100 µg/mL; Minimal inhibitory concentration(MIC), T. mentagrophytes A. 9129 [3]: 6.25 µg/mL; Minimal inhibitory concentration(MIC), A furnigatus B. 19119 [9]: 100 µg/mL; Minimal inhibitory concentration(MIC), Cry. neoformans A. 34144 [10]: 3.13 µg/mL; Minimal inhibitory concentration(MIC), Cry. neoformans IFM. 40092 [14]: 0.78 µg/mL
50.0 µg/mL | >100 µg/mL | 6.25 µg/mL |  | 50.0 µg/mL | 100 µg/mL | 12.5 µg/mL | >100 µg/mL |  | 25.0 µg/mL | >100 µg/mL | 25.0 µg/mL | 50.0 µg/mL | >100 µg/mL | 12.5 µg/mL | 1.56 µg/mL | 50.0 µg/mL | Cc1cc(C)cc(C=C(F)OCC2COC(Cn3cncn3)(c3ccc(Cl)cc3Cl)O2)c1 (mixture of isomers) [Ex. 73] | 
 |  |  |  |  |  |  |  |  |  |  |  | 12.5 µg/mL |  |  |  | 12.5 µg/mL | FC(OCC1COC(Cn2ccnc2)(c2ccc(F)cc2F)O1)=C(c1ccc2c(c1)OCO2)C(F)(F)F (mixture of isomers) [Ex. 62] | Minimal inhibitory concentration (MIC) ([1]; T. mentagrophytes B. 32663, RPMI-1640, 35° C., 4 to 48 hours): 3.13 µg/mL; Minimal inhibitory concentration (MIC) ([2]; A. niger A. 16404, RPMI-1640, 35° C., 4 to 48 hours): >100 µg/mL; Minimal inhibitory concentration (MIC) ([3]; T. mentagrophytes A. 9129, RPMI-1640, 35° C., 4 to 48 hours): 12.5 µg/mL; Minimal inhibitory concentration (MIC) ([4]; C. pseudotropicalis K. 11658, RPMI-1640, 35° C.): 50.0 µg/mL; Minimal inhibitory concentration (MIC) ([5]; C. parapsitosis A. 7330, RPMI-1640, 35° C.): >100 µg/mL; Minimal inhibitory concentration (MIC) ([6]; Cry. neoformans B. 42419, RPMI-1640, 35° C.): 0.78 µg/mL; Minimal inhibitory concentration (MIC) ([8]; T. glabrata B. 16205, RPMI-1640, 35° C.): 3.13 µg/mL; Minimal inhibitory concentration (MIC) ([9]; A furnigatus B. 19119, RPMI-1640, 35° C., 4 to 48 hours): 25.0 µg/mL; Minimal inhibitory concentration (MIC) ([10]; Cry. neoformans A. 34144, RPMI-1640, 35° C., 4 to 48 hours): 0.78 µg/mL; Minimal inhibitory concentration (MIC) ([11]; C. krusei K. 11655, RPMI-1640, 35° C.): 100 µg/mL; Minimal inhibitory concentration (MIC) ([12]; C. albicans IFO. 1385, RPMI-1640, 35° C.): 0.78 µg/mL; Minimal inhibitory concentration (MIC) ([13]; C. tropicalis A. 13803, RPMI-1640, 35° C.): 100 µg/mL; Minimal inhibitory concentration (MIC) ([14]; Cry. neoformans IFM. 40092, RPMI-1640, 35° C., 4 to 48 hours): 0.20 µg/mL
>100 µg/mL | >100 µg/mL | 1.56 µg/mL | 50.0 µg/mL | 50.0 µg/mL | >100 µg/mL | 1.56 µg/mL | >100 µg/mL | 25.0 µg/mL | 3.13 µg/mL | >100 µg/mL | 6.25 µg/mL |  | >100 µg/mL | 1.56 µg/mL | 0.39 µg/mL |  | FC(Oc1ccc(OCC2COC(Cn3ccnc3)(c3ccc(F)cc3F)O2)cc1)=C(c1cccc(Cl)c1)C(F)(F)F (mixture of isomers) [Ex. 114] | 
